In brackets after ≈: the same amount, converted by molar mass. Like-named read-outs stand apart in the source and are kept apart here.
Columns and labels:
[1] = system: E. coli GC 2235; experiment: MIC, broth microdilution; settings: Escherichia coli
[2] = system: S. typhimurium GC 2172; experiment: MIC, broth microdilution; settings: Salmonella enterica, TYPHIMURIUM
[3] = system: E. coli GC 2270; experiment: MIC, broth microdilution; settings: Escherichia coli
[4] = system: S. aureus GC 6469; experiment: MIC, broth microdilution; settings: Staphylococcus aureus
[5] = system: S. aureus GC 6467; experiment: MIC, broth microdilution; settings: Staphylococcus aureus
Protocol: Antimicrobial susceptibility testing. The in vitro activities of the antibiotics are determined by the broth microdilution method as recommended by the National Committee for Clinical Laboratory Standards (NCCLS) (1). Mueller-Hinton II broth (MHBII)(BBL Cockeysville, Md.) is the medium employed in the testing procedures. Microtiter plates containing serial dilutions of each antimicrobial agent are inoculated with each organism to yield the appropriate density (10^5 CFU/ml) in a 100 μl final volume. The plates are incubated for 18-22 hours at 35° C. in ambient air.
Representative compounds were first incubated in mouse serum for an hour prior to the in vitro testing against a panel of selected gram-positive and gram-negative bacteria strains. All compounds were also pre-incubated in water for an hour prior to testing as control.

[6] = system: E. coli GC 2233; experiment: MIC, broth microdilution; settings: Escherichia coli
[7] = system: c. albicans GC 3066; experiment: MIC, broth microdilution
[8] = system: E. coli GC 4560; experiment: MIC, broth microdilution; settings: Escherichia coli
[9] = system: Staph.; experiment: Range of MIC for Staph. strains, including MRSA; settings: Staphylococcus aureus
[10] = system: S. aureus GC 2216; experiment: MIC, broth microdilution; settings: Staphylococcus aureus
[11] = system: E. faecium GC 4556; experiment: MIC, broth microdilution; settings: Enterococcus faecium
[12] = system: S. aureus GC 6466; experiment: MIC, broth microdilution; settings: Staphylococcus aureus
[13] = system: E. faecalis GC 2242; experiment: MIC, broth microdilution; settings: Enterococcus faecalis
[14] = system: E. coli GC 6465; experiment: MIC, broth microdilution; settings: Escherichia coli
[15] = system: E. coli GC 2231; experiment: MIC, broth microdilution; settings: Escherichia coli
[16] = system: S. aureus GC 4536; experiment: MIC, broth microdilution; settings: Staphylococcus aureus
[17] = system: E. faecium GC 2243; experiment: MIC, broth microdilution; settings: Enterococcus faecium
[18] = system: E. coli GC 1073; experiment: MIC, broth microdilution; settings: Escherichia coli
[19] = system: S. aureus GC 1079; experiment: MIC, broth microdilution; settings: Staphylococcus aureus
[20] = system: E. coli; experiment: Range of MIC for E. coli strains; settings: Escherichia coli

Question: With CCCCC(=O)OCOC(=O)N(CC(=O)Nc1cc(N(C)C)c2c(c1O)C(=O)C1=C(O)[C@]3(O)C(=O)C(C(N)=O)=C(O)[C@@H](N(C)C)[C@@H]3C[C@@H]1C2)C(C)(C)C [Example 61, ({[(2-{[(5aR,6aS,7S,10aS)-9-(aminocarbonyl)-4,7-bis(dimethylamino)-1,8,10a,11-tetrahydroxy-10,12-dioxo-5,5a,6,6a,7,10,10a,12-octahydrotetracen-2-yl]amino}-2-oxoethyl)(tert-butyl)amino]carbonyl}oxy)methyl pentanoate] as the compound, how does the MIC ([1]; GC2235, pre-incubation in human serum) read?
Answer: Its MIC is 4 µg/mL (≈ 5.38 µM).

Question: And the MIC ([1]; GC2235, pre-incubation in mouse serum)?
Answer: The MIC was 0.5 µg/mL (≈ 0.672 µM).

Question: And the MIC ([1]; GC2235, pre-incubation in water)?
Answer: Its MIC is 16 µg/mL (≈ 21.5 µM).

Question: And the MIC ([2]; pre-incubation in human serum)?
Answer: Its MIC is 64 µg/mL (≈ 86 µM).

Question: And the MIC ([2]; pre-incubation in mouse serum)?
Answer: The MIC was 1 µg/mL (≈ 1.34 µM).

Question: And the MIC ([2]; pre-incubation in water)?
Answer: The MIC was > 64 µg/mL.

Question: What about the MIC ([3]; GC2270, pre-incubation in human serum) of the same compound?
Answer: Its MIC is 4 µg/mL (≈ 5.38 µM).

Question: And the MIC ([3]; GC2270, pre-incubation in mouse serum)?
Answer: Its MIC is 0.5 µg/mL (≈ 0.672 µM).

Question: What about the MIC ([3]; GC2270, pre-incubation in water) of the same compound?
Answer: The MIC was 16 µg/mL (≈ 21.5 µM).

Question: What about the MIC ([4]; GC6469, pre-incubation in human serum) of the same compound?
Answer: Its MIC is 0.5 µg/mL (≈ 0.672 µM).

Question: What about the MIC ([4]; GC6469, pre-incubation in mouse serum) of the same compound?
Answer: Its MIC is 0.5 µg/mL (≈ 0.672 µM).

Question: And the MIC ([4]; GC6469, pre-incubation in water)?
Answer: The MIC was 2 µg/mL (≈ 2.69 µM).

Question: And the MIC ([5]; GC6467, pre-incubation in human serum)?
Answer: Its MIC is 0.5 µg/mL (≈ 0.672 µM).

Question: What about the MIC ([5]; GC6467, pre-incubation in mouse serum) of the same compound?
Answer: The MIC was 0.5 µg/mL (≈ 0.672 µM).

Question: And the MIC ([5]; GC6467, pre-incubation in water)?
Answer: Its MIC is 1 µg/mL (≈ 1.34 µM).

Question: What about the MIC ([6]; GC2233, pre-incubation in human serum) of the same compound?
Answer: The MIC was 8 µg/mL (≈ 10.8 µM).

Question: And the MIC ([6]; GC2233, pre-incubation in mouse serum)?
Answer: Its MIC is 1 µg/mL (≈ 1.34 µM).

Question: And the MIC ([6]; GC2233, pre-incubation in water)?
Answer: The MIC was 16 µg/mL (≈ 21.5 µM).

Question: What about the MIC ([7]; Candida albicans, GC3066) of the same compound?
Answer: Its MIC is > 64 µg/mL.

Question: What about the MIC ([7]; pre-incubation in human serum) of the same compound?
Answer: The MIC was >64 UG/ML.

Question: And the MIC ([7]; pre-incubation in mouse serum)?
Answer: The MIC was >64 UG/ML.

Question: What about the MIC ([8]; GC4560, pre-incubation in human serum) of the same compound?
Answer: Its MIC is 1 µg/mL (≈ 1.34 µM).

Question: And the MIC ([8]; GC4560, pre-incubation in mouse serum)?
Answer: Its MIC is 0.25 µg/mL (≈ 0.336 µM).

Question: What about the MIC ([8]; GC4560, pre-incubation in water) of the same compound?
Answer: The MIC was 1 µg/mL (≈ 1.34 µM).

Question: And the MIC ([9]; MRSA, read-out: Range of MIC, Staph (Mouse Serum))?
Answer: The MIC was 0.25 to 0.5 µg/mL (≈ 0.336 to 0.672 µM).

Question: What about the MIC ([9]; MRSA, read-out: Range of MIC, Staph (Water)) of the same compound?
Answer: The MIC was 0.5 to 2 µg/mL (≈ 0.672 to 2.69 µM).

Question: And the MIC ([9]; read-out: Minimum inhibitory concentration (MIC), Staph (Human Serum))?
Answer: The MIC was 0.5 to 1 µg/mL (≈ 0.672 to 1.34 µM).

Question: And the MIC ([9]; read-out: Minimum inhibitory concentration (MIC), Staph (Water))?
Answer: The MIC was 0.5 to 2 µg/mL (≈ 0.672 to 2.69 µM).

Question: And the MIC ([10]; GC2216, pre-incubation in human serum)?
Answer: The MIC was 0.5 µg/mL (≈ 0.672 µM).

Question: And the MIC ([10]; GC2216, pre-incubation in mouse serum)?
Answer: The MIC was 0.5 µg/mL (≈ 0.672 µM).

Question: And the MIC ([10]; GC2216, pre-incubation in water)?
Answer: Its MIC is 1 µg/mL (≈ 1.34 µM).

Question: And the MIC ([11]; GC4556, pre-incubation in human serum)?
Answer: The MIC was 2 µg/mL (≈ 2.69 µM).

Question: And the MIC ([11]; GC4556, pre-incubation in mouse serum)?
Answer: The MIC was 0.5 µg/mL (≈ 0.672 µM).

Question: What about the MIC ([11]; GC4556, pre-incubation in water) of the same compound?
Answer: The MIC was 2 µg/mL (≈ 2.69 µM).

Question: And the MIC ([12]; GC6466, pre-incubation in human serum)?
Answer: Its MIC is 0.5 µg/mL (≈ 0.672 µM).

Question: What about the MIC ([12]; GC6466, pre-incubation in mouse serum) of the same compound?
Answer: The MIC was 0.5 µg/mL (≈ 0.672 µM).

Question: And the MIC ([12]; GC6466, pre-incubation in water)?
Answer: The MIC was 0.5 µg/mL (≈ 0.672 µM).

Question: And the MIC ([13]; GC2242, pre-incubation in human serum)?
Answer: Its MIC is 2 µg/mL (≈ 2.69 µM).

Question: And the MIC ([13]; GC2242, pre-incubation in mouse serum)?
Answer: The MIC was 0.5 µg/mL (≈ 0.672 µM).

Question: What about the MIC ([13]; GC2242, pre-incubation in water) of the same compound?
Answer: Its MIC is 2 µg/mL (≈ 2.69 µM).

Question: What about the MIC ([14]; GC6465, pre-incubation in human serum) of the same compound?
Answer: Its MIC is 32 µg/mL (≈ 43 µM).

Question: What about the MIC ([14]; GC6465, pre-incubation in mouse serum) of the same compound?
Answer: The MIC was 1 µg/mL (≈ 1.34 µM).

Question: And the MIC ([14]; GC6465, pre-incubation in water)?
Answer: Its MIC is > 64 µg/mL.

Question: What about the MIC ([15]; GC2231, pre-incubation in human serum) of the same compound?
Answer: The MIC was 8 µg/mL (≈ 10.8 µM).

Question: What about the MIC ([15]; GC2231, pre-incubation in mouse serum) of the same compound?
Answer: Its MIC is 1 µg/mL (≈ 1.34 µM).

Question: What about the MIC ([15]; GC2231, pre-incubation in water) of the same compound?
Answer: The MIC was 32 µg/mL (≈ 43 µM).

Question: And the MIC ([16]; GC4536, pre-incubation in human serum)?
Answer: Its MIC is 0.5 µg/mL (≈ 0.672 µM).

Question: What about the MIC ([16]; GC4536, pre-incubation in mouse serum) of the same compound?
Answer: The MIC was 0.5 µg/mL (≈ 0.672 µM).

Question: What about the MIC ([16]; GC4536, pre-incubation in water) of the same compound?
Answer: Its MIC is 0.5 µg/mL (≈ 0.672 µM).

Question: What about the MIC ([17]; GC2243, pre-incubation in human serum) of the same compound?
Answer: Its MIC is 1 µg/mL (≈ 1.34 µM).

Question: And the MIC ([17]; GC2243, pre-incubation in mouse serum)?
Answer: Its MIC is 0.25 µg/mL (≈ 0.336 µM).

Question: What about the MIC ([17]; GC2243, pre-incubation in water) of the same compound?
Answer: The MIC was 0.5 µg/mL (≈ 0.672 µM).

Question: What about the MIC ([18]; GC1073, pre-incubation in human serum) of the same compound?
Answer: The MIC was 8 µg/mL (≈ 10.8 µM).

Question: What about the MIC ([18]; GC1073, pre-incubation in mouse serum) of the same compound?
Answer: The MIC was 0.5 µg/mL (≈ 0.672 µM).

Question: What about the MIC ([18]; GC1073, pre-incubation in water) of the same compound?
Answer: Its MIC is 32 µg/mL (≈ 43 µM).

Question: What about the MIC ([19]; GC1079, pre-incubation in human serum) of the same compound?
Answer: The MIC was 0.5 µg/mL (≈ 0.672 µM).

Question: What about the MIC ([19]; GC1079, pre-incubation in mouse serum) of the same compound?
Answer: Its MIC is 0.25 µg/mL (≈ 0.336 µM).

Question: And the MIC ([19]; GC1079, pre-incubation in water)?
Answer: The MIC was 1 µg/mL (≈ 1.34 µM).

Question: And the MIC ([20]; 20 h, read-out: Range of MIC, E. coli (Mouse Serum))?
Answer: Its MIC is 0.5 to 1 µg/mL (≈ 0.672 to 1.34 µM).

Question: What about the MIC ([20]; read-out: Minimum inhibitory concentration (MIC), E. coli (Human Serum)) of the same compound?
Answer: The MIC was 4 to 32 µg/mL (≈ 5.38 to 43 µM).

Reference: US20070049564A1 (Wyeth, priority 2005, published 2007)
